Data reported in ChEMBL document CHEMBL5053551, “Structure-Based Design of Dual Partial Peroxisome Proliferator-Activated Receptor γ Agonists/Soluble Epoxide Hydrolase Inhibitors” (J Med Chem, 2021).
Active and inactive are the calls of the source. The rule behind the calls is not given here.

Tests used:
[1] = target: T1, Peroxisome proliferator-activated receptor delta (Homo sapiens) (UniProt Q03181); assay: Partial agonist activity at GAL4-tagged human PPARdelta LBD expressed in HEK293T cells at 3 uM incubated for 12 to 14 hrs by dual-Glo luciferase assay; type: cell-based; details: time 12-14 hrs
T1 sequence (whole entry): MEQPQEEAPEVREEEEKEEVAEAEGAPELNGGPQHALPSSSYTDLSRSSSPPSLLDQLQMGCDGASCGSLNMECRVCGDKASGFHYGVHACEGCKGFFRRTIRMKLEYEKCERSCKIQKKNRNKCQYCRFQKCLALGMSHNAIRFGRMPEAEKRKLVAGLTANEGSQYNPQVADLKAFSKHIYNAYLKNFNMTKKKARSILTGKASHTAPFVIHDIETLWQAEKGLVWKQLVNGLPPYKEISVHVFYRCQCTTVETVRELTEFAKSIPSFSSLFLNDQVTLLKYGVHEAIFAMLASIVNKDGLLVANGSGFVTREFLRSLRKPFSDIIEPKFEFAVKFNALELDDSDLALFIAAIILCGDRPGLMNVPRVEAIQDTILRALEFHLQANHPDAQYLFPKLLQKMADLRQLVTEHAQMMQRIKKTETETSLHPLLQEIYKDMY

[2] = target: T2, Bifunctional epoxide hydrolase 2 (Mus musculus, UniProt P34914); assay: Inhibition of N-terminal His-tagged mouse sEH (2 to 554 residues) expressed in Escherichia coli Rosetta2 (DE3) assessed as reduction in 6-methoxy-2-naphthaldehyde formation using PHOME as substrate preincubated for 30 to 45 mins followed by substrate addition and measured after 30 to 45 mins by fluorescence assay
T2 sequence (P34914 whole entry): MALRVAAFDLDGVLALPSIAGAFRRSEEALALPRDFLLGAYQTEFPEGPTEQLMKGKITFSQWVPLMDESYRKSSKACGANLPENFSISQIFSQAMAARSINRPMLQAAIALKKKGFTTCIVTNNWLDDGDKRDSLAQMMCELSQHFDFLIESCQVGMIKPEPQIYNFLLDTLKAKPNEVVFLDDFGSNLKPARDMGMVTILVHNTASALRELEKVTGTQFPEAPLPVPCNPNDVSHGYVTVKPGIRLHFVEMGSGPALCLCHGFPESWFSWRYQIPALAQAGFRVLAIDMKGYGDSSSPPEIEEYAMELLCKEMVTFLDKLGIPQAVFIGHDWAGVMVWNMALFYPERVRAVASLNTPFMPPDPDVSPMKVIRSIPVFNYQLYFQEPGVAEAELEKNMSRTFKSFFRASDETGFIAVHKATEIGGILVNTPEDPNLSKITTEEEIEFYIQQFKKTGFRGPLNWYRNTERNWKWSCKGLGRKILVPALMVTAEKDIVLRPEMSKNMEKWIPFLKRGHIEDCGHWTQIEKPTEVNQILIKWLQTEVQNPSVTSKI

HepG2 [3] = assay: Cytotoxicity against human HepG2 cells assessed as reduction in ATP level at above 25 to 50 uM after 72 hrs by CellTiter-glo luminescence assay; type: cell-based; details: hepg2, 72 h, dose 25-50 µM
HepG2 [4] = assay: Cytotoxicity against human HepG2 cells assessed as reduction in ATP level upto 10 uM after 72 hrs by CellTiter-glo luminescence assay; type: cell-based; details: hepg2, 72 h
[5] = target: T3, Peroxisome proliferator-activated receptor gamma (Homo sapiens, UniProt P37231); assay: Partial agonist activity at GAL4-tagged human PPARgamma LBD expressed in HEK293T cells incubated for 12 to 14 hrs by dual-Glo luciferase assay; type: cell-based
T3 sequence (P37231 whole entry): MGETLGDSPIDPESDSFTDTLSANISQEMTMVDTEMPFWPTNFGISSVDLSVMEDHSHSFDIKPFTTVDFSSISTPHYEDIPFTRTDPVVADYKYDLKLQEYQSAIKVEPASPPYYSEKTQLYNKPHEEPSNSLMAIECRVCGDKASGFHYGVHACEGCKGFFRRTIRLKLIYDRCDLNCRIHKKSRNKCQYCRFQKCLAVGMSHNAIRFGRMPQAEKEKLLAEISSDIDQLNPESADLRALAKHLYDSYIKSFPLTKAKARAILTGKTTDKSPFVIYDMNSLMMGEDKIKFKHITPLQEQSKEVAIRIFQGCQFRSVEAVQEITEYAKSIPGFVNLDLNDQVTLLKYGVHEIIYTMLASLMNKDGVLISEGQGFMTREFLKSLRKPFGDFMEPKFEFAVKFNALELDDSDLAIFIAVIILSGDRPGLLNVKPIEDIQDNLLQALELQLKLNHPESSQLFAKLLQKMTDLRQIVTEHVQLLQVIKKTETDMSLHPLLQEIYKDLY

[6] = target: T4, Vitamin D3 receptor (Homo sapiens) (UniProt P11473); assay: Partial agonist activity at GAL4-tagged human VDR LBD expressed in HEK293T cells at 3 uM incubated for 12 to 14 hrs by dual-Glo luciferase assay; type: cell-based; details: filed as partial agonist, time 12-14 hrs
T4 sequence (whole entry): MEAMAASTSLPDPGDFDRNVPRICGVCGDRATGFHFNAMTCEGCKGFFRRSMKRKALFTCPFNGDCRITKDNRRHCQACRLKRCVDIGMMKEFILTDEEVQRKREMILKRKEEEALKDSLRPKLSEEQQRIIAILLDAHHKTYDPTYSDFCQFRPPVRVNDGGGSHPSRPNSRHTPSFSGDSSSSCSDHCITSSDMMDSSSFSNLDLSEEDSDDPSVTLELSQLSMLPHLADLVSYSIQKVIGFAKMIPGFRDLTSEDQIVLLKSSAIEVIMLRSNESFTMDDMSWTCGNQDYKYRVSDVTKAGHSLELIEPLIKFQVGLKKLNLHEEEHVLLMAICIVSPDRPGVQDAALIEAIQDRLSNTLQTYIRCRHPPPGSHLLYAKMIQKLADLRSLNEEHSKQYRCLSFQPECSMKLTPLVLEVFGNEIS

[7] = Stability of compound in Sprague-Dawley rat liver microsomes assessed as half life at 10 uM preincubated for 5 mins in presence of NADPH regenerating system followed by microsomal addition and measured upto 60 mins by HPLC analysis; type: ADME, Microsome; details: time 65 min
[8] = Stability of compound in human liver microsomes assessed as half life at 10 uM preincubated for 5 mins in presence of NADPH regenerating system followed by microsomal addition and measured upto 60 mins by HPLC analysis; type: ADME, Microsome; details: time 65 min
[9] = target: T5, Nuclear receptor subfamily 1 group I member 3 (Homo sapiens, UniProt Q14994); assay: Partial agonist activity at GAL4-tagged human CAR LBD expressed in HEK293T cells at 3 uM incubated for 12 to 14 hrs by dual-Glo luciferase assay; type: cell-based; details: time 12-14 hrs
T5 sequence (Q14994 whole entry): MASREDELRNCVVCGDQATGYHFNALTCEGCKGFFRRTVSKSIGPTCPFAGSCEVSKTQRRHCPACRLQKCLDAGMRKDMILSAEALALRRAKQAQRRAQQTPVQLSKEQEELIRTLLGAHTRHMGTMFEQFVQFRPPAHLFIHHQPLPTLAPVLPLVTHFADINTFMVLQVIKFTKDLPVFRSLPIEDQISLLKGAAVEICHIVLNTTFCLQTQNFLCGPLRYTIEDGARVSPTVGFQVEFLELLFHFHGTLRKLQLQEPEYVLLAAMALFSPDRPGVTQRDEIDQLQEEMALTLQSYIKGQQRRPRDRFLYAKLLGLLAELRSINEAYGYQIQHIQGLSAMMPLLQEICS

Row | Activity [1] | IC50 [2] [µM] | EC50 [5] [µM] | Activity [6] | half-life at 10 µM [7] [h] | half-life at 10 µM [8] [h] | Activity [9] | SMILES | Activity (HepG2 [3]) | Activity (HepG2 [4])
1 | inactive | 0.202 | 0.22 | Active | 0.95 | 1.38 | Active | O=C(NCc1ccc(NS(=O)(=O)C2CC2)cc1C(F)(F)F)c1ccc2c(ccn2Cc2cccc(F)c2)c1 | Toxic | Non-Toxic
2 | inactive | 0.046 | 0.19 | Active | 0.867 | 1.68 | Active | CS(=O)(=O)Nc1ccc(CNC(=O)c2ccc3c(ccn3Cc3cccc(F)c3)c2)c(C(F)(F)F)c1 | Toxic | Non-Toxic
